Assay results as given in patent publication US12590099B2, “Inhibitors of histone deacetylase useful for the treatment or prevention of HIV infection” (Merck Sharp & Dohme LLC, priority 2018, dated 2026).
Where two headings read alike, the source gives them in different places.

Assays:
[1] = biological target: T1, Recombinant human HDAC2 (Homo sapiens, UniProt Q92769); experiment: Human HDAC enzyme inhibitor Fluor-de-Lys assay, HDAC2; assay type: biochemical
T1 construct: Full length human HDAC2-FLAG was expressed in baculovirus infected Sf9 cells; FLAG (C); made in house; host or cells: Sf9 (baculovirus)
Procedure: Human HDAC Enzyme Inhibitor Fluor-De-Lys Assay
Recombinant human HDAC8 (BML-SE145-0100) and HDAC10 (BML-SE559-0050) enzymes, HDAC substrates BML-KI104 and BML-KI178, and HDAC developer solutions BML-KI105 and BML-KI176 were purchased from Enzo Life Sciences. […] HDAC inhibitor suberoylanilide hydroxamic acid (SAHA) was obtained from Indofine and trichostatin A (TSA) was obtained from Sigma-Aldrich.
Recombinant human HDAC1, HDAC2, and HDAC3/SMRT heterodimer were prepared by Merck Research Laboratories. […] The eluted protein was then passed over an anti-HDAC1 immunoaffinity column to remove any complexes containing HDAC1. […]
The histone deacetylase activities of HDAC1, HDAC2, HDAC3, HDAC6, and HDAC8 were measured in modified FLUOR DE LYS assays in 384-well format. In this assay, HDAC enzymes are initially incubated with an ε-acetyl (or -trifluoroacetyl)-L-lysine-containing substrate with a C-terminal amide having aminomethylcoumarin as the amine component. HDACs cleave the ε-acetyl group, rendering the resulting product susceptible to AMC cleavage by trypsin. The released AMC is then detected by its fluorescence.
The HDAC3/SMRT assay employed buffer B, consisting of 20 mM HEPES, pH 8.0, 1 mM MgCl2, 50 mM NaCl, 2.7 mM KCl, 0.05% BSA, 0.005% Tween 20, and 10 μM IP4. […] The HDAC8 assay employed buffer D, consisting of 20 mM HEPES, pH 8.0, 1 mM MgCl2, 100 mM NaCl, 20 mM KCl, 0.10% n-octyl-β-D-glucoside (Anatrace) and 0.05% BSA. All steps were performed at room temperature (23° C.). The assay was performed by pre-incubating serial dilutions of test compounds with the target HDAC prior to initiation with substrate. Each compound was titrated in a 10-point dose response, using a 1:3 fold dilution scheme, with 0.15 ul of solution added by ECH0555 to the plate, followed by the addition of 20 μl of the appropriate HDAC isoform diluted in appropriate assay buffer. […] Final conditions used for each assay were: 1. HDAC 1, 0.3 nM total enzyme, 20 μM substrate BML-KI104; 2. […] HDAC 3/SMRT, 0.3 nM total enzyme, 20 μM substrate BML-KI104; 4. […] The reactions were stopped and developed by addition of 30 ul of HDAC developer solution containing a saturating level of HDAC inhibitor as follows: 1.

[2] = biological target: T2, Recombinant human HDAC8 (Homo sapiens, UniProt Q9BY41); experiment: Human HDAC enzyme inhibitor Fluor-de-Lys assay, HDAC8; assay type: biochemical
T2 construct: purchased Enzo Life Sciences BML-SE145-0100
T2 sequence (Q9BY41 1-377): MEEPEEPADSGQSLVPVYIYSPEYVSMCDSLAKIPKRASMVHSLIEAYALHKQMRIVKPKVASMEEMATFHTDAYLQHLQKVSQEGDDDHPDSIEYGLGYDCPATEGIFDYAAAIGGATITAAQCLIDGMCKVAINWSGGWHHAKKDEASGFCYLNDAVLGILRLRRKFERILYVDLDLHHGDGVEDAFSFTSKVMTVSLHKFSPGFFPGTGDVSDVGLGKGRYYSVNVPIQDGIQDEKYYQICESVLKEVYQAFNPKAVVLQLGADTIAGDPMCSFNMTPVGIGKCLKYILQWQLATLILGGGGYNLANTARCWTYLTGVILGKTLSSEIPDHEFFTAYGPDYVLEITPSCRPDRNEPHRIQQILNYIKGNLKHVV

[3] = system: KARN cells (Jurkat 2C4); experiment: cells; assay type: cell-based
Outline: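 Jurkat 2C4 (KARN) cells dosed with test compounds up to 40 μM final, 0.4% DMSO, overnight at 5% CO2; luciferase read by Steady-Glo luminescence after 10 min at room temperature. DMSO set as 0% and 2 μM SAHA as 100% induction; 4-parameter fit of percent activation.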

[4] = Homo sapiens, Jurkat, read-out: Karn EC50 (nM) 0.1% NHS, 0.1% normal human serum
[5] = Homo sapiens, Jurkat, read-out: Karn EC50 (nM) 5% NHS, 5% normal human serum

T1 sequence (Q92769 whole entry): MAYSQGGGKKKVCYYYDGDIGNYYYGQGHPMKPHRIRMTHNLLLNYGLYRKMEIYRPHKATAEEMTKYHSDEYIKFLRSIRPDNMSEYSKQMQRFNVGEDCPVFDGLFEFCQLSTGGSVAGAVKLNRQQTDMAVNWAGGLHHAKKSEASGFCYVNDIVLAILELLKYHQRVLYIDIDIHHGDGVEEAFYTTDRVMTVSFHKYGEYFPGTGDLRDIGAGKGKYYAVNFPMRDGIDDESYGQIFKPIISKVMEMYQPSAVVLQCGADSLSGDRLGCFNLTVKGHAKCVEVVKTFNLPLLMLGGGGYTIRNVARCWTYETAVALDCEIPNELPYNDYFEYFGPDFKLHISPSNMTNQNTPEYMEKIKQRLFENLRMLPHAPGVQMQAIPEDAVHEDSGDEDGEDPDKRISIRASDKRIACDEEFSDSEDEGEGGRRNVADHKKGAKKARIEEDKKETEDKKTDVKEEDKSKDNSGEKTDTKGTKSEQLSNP

Structure (SMILES) | IC50 [1] [nM] | IC50 [2] [nM] | EC50 [3, 4] [nM] | EC50 [3, 5] [nM] | EC50 ([3]; read-out: Karn EC50 (nM) 0.1% NHS, 0.1% normal human serum) [nM] | EC50 ([3]; read-out: Karn EC50 (nM) 5% NHS, 5% normal human serum) [nM]
CCC(=O)CCCCC[C@H](NC(=O)[C@H]1CC[C@]2(CC1)OC(=O)c1ncccc12)c1ncc(-c2ccc3nc(C4CC4)ccc3c2)o1 [Compound 122] | 157 | 29300 | 1130 | 2840 | – | –
CCN1CCC2(CC1)C[C@@H]2C(=O)N[C@@H](CCCCCC(=O)CC1CC1)c1ncc(-c2ccc(F)cc2)[nH]1 [Compound 201] | 32.6 | 14200 | 359 | 403 | – | –
CCC(=O)CCCCC[C@H](NC(=O)[C@H]1CC12CCN(C(C)C)CC2)c1ncc(-c2ccc3nc(C4CC4)ccc3c2)o1 [Compound 116] | 15.7 | > 15000 | 630 | 617 | – | –
CCC(=O)CCCCC[C@H](NC(=O)[C@H]1CC12CCN(CC)CC2)c1ncc(-c2ccc(-c3cnc(C4CC4)nc3)cc2)o1 [Compound 161] | 163 | 26800 | 1370 | 1460 | – | –
CCC(=O)CCCCC[C@H](NC(=O)C1=NOC2(CCN(CC)CC2)C1)c1ncc(-c2cc3ccc(C)nc3cc2OC)[nH]1 [Compound 207] | 2.1 | 1590 | 55 | 58 | – | –
CCC(=O)CCCCC[C@H](NC(=O)[C@H]1CC12CCN(C)CC2)c1ncc(-c2ccc3c(=O)n(C)ccc3c2)o1 [Compound 137] | 17.2 | 33500 | 434 | 443 | – | –
CCC(=O)CCCCC[C@H](NC(=O)[C@H]1CC12CCN(CC)CC2)c1ncc(-c2ccc3c(=O)n(C4CC4)ccc3c2)[nH]1 [Compound 150] | 1.4 | 4370 | 114 | 135 | – | –
CCC(=O)CCCCC[C@H](NC(=O)C1CC12CC1CCC(C2)N1C)c1ncc(-c2ccc3ncccc3c2)[nH]1 (single isomer, unassigned) [Compound 166] | 2.2 | 5660 | 469 | 591 | – | –
CCC(=O)CCCCC[C@H](NC(=O)[C@H]1CC12CCN(CC1CC1)CC2)c1ncc(-c2cc3ccc(=O)n(C)c3cc2OC)o1 [Compound 199] | 1.3 | 300 | 62 | 83 | – | –
CCC(=O)CCCCC[C@H](NC(=O)[C@H]1CC12CCN(C)CC2)c1ncc(-c2ccc3nc(N(C)C)ccc3c2)[nH]1 [Compound 66, (1S)—N-[(1S)-1-{5-[2-(dimethylamino)quinolin-6-yl]-1H-imidazol-2-yl}-7-oxononyl]-6-methyl-6-azaspiro[2.5]octane-1-carboxamide] | > 900 | > 1500 | 27 | 14 | – | –
CCC(=O)CCCCC[C@H](NC(=O)[C@H]1CC12CCN(C)CC2)c1ncc(-c2cc(OC)ncc2F)o1 [Compound 220] | 251 | > 900 | 3810 | 3930 | – | –
CN1CCC2(CC1)C[C@@H]2C(=O)N[C@@H](CCCCCC(=O)CC(F)(F)F)c1ncc(-c2ccc(F)cc2)[nH]1 [Compound 68] | 126 | 4410 | > 40000 | – | – | –
CCC(=O)CCCCC[C@H](NC(=O)[C@H]1CC12CCN(C)CC2)c1ncc(-c2ccc(-c3ccc(C4CC4)nc3)cc2)o1 [Compound 143] | 207 | 13100 | 1240 | 1330 | – | –
CCC(=O)CCCCC[C@H](NC(=O)[C@H]1CC12CCN(CC)CC2)c1nc(-c2cc3ccc(C)nc3cc2OC)cn1COC(=O)C(C)(C)C [Compound 215, {2-[(1S)-1-({[(1S)-6-ethyl-6-azaspiro[2.5]oct-1-yl]carbonyl}amino)-7-oxononyl]-4-(7-methoxy-2-methylquinolin-6-yl)-1H-imidazol-1-yl}methyl 2,2-dimethylpropanoate] | 4 | > 900 | 93 | 93 | – | –
CCN1CCC2(CC1)C[C@@H]2C(=O)N[C@@H](CCCCCC(=O)CC1CC1)c1ncc(-c2cc3ccc(C)nc3cc2OC)o1 [Compound 167] | 8 | 8270 | 122 | 253 | – | –
CCC(=O)CCCCC[C@H](N)c1ncc(-c2cc3ccc(C)nc3cc2OC)[nH]1 [Compound 209, (S)-9-amino-9-(5-(7-methoxy-2-methylquinolin-6-yl)-1H-imidazol-2-yl)nonan-3-one] | 151 | 144 | 1440 | 4950 | – | –
CCC(=O)CCCCC[C@H](NC(=O)C1(C)CC12CCN(C(C)C)CC2)c1ncc(-c2ccc3nc(C)ccc3c2)[nH]1 (single isomer, unassigned) [Compound 152, (1S or 1R)-1-methyl-6-(1-methylethyl)-N-{(1S)-1-[5-(2-methylquinolin-6-yl)-1H-imidazol-2-yl]-7-oxononyl}-6-azaspiro[2.5]octane-1-carboxamide] | 4 | 5060 | 128 | 96 | – | –
CCC(=O)CCCCC[C@H](NC(=O)[C@H]1CC12CCN(C)CC2)c1ncc(-c2ccc3c(c2)C2CCC3C2)[nH]1 (stereo partly shown) [Compound 74] | 36.2 | 4530 | 351 | 376 | – | –
CCN1CCC2(CC1)C[C@@H]2C(=O)N[C@@H](CCCCCC(=O)CC1CCC1)c1ncc(-c2cc3ccc(C)nc3cc2OC)o1 [Compound 184] | 38.8 | > 45000 | 1630 | 2760 | – | –
CCC(=O)CCCCC[C@H](NC(=O)[C@H]1CC12CCN(C)CC2)c1ncc(-c2cc(OC)c3ccccc3n2)[nH]1 [Compound 170] | 16.9 | 835 | 436 | 1160 | – | –
CCC(=O)CCCCC[C@H](NC(=O)[C@H]1CC12CCN(C)CC2)c1ncc(-c2ccc3nc(C4CC4)oc3c2)[nH]1 [Compound 160] | 12.1 | 16800 | 200 | 234 | – | –
CCC(=O)CCCCC[C@H](NC(=O)C1CC12CCN(C)C(C)(C)C2)c1ncc(-c2ccc3nc(C)ccc3c2)[nH]1 (single isomer, unassigned) [Compound 130] | 15.3 | 6000 | – | – | 503 | 598
CCC(=O)CCCCC[C@H](NCCN(C)C)c1ncc(-c2cc3ccc(C)nc3cc2OC)[nH]1 [Compound 217, (9S)-9-{[2-(dimethylamino)ethyl]amino}-9-[5-(7-methoxy-2-methylquinolin-6-yl)-1H-imidazol-2-yl]nonan-3-one] | 50.3 | > 900 | 576 | 518 | – | –
CCC(=O)CCCCC[C@H](NC(=O)[C@H]1CC12CCN(CC)CC2)c1ncc(-c2ccc3c(=O)n(C(C)C)ccc3c2)[nH]1 [Compound 126] | 1.3 | 6480 | 53 | 33 | – | –
CCC(=O)CCCCC[C@H](NC(=O)[C@H]1CC12CCN(C)CC2)c1ncc(-c2ccc3oc(=O)ccc3c2)[nH]1 [Compound 138] | 7.9 | 10100 | 210 | 223 | – | –
CCC(=O)CCCCC[C@H](NC(=O)C1CC2(CCN(C)CC2)C1)c1ncc(-c2ccc3nn(C)cc3c2)[nH]1 [Compound 145] | 12.6 | 4270 | 641 | 746 | – | –
